Experimental data reported in paper PMC9318203, “Squaramide-Tethered Sulfonamides and Coumarins: Synthesis, Inhibition of Tumor-Associated CAs IX and XII and Docking Simulations” (International Journal of Molecular Sciences, 2022).
“And” between values parts separate entries of the source, which are not always exact repeats. Equal values may be shown once.

Legend:
hCA II = target: T1, hCA II (Homo sapiens, UniProt P00918); test: stopped-flow CO2 hydrase assay, hCA II; format: biochemical
T1 construct: made in house
Procedure: (§1) For that purpose, the stopped-flow CO2 hydration assay was used (Table 1).
(§2) The inhibitory properties of title compounds against CAs were determined using the stopped-flow CO2 hydrase assay, as previously reported.

hCA XII = target: T2, hCA XII (Homo sapiens, UniProt O43570); test: stopped-flow CO2 hydrase assay, hCA XII; format: biochemical; details: for S.I. I/XII: Ki (CA I)/Ki (CA XII); for S.I. II/XII: Ki (CA II)/Ki (CA XII)
T2 construct: made in house
Procedure: as §1, §2

hCA IX = target: T3, hCA IX (Homo sapiens, UniProt Q16790); test: stopped-flow CO2 hydrase assay, hCA IX; format: biochemical; details: for S.I. I/IX: Ki (CA I)/Ki (CA IX); for S.I. II/IX: Ki (CA II)/Ki (CA IX)
T3 construct: made in house
Procedure: as §1, §2

hCA I = target: T4, hCA I (Homo sapiens, UniProt P00915); test: stopped-flow CO2 hydrase assay, hCA I; format: biochemical
T4 construct: made in house
Procedure: as §1, §2

[1] = sulfonamido-containing squaramides, mean from 3 assays, stopped flow
[2] = coumarin-containing squaramides, incubation time 6 h, mean from three assays

T4 sequence (P00915 whole entry): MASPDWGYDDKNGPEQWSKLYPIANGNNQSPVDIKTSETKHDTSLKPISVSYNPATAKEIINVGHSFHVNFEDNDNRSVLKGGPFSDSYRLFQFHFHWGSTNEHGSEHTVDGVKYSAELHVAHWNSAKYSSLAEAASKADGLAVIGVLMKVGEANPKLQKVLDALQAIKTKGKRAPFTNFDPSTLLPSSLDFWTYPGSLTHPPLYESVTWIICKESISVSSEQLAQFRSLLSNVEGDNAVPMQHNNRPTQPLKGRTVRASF
T2 sequence (O43570 25-354): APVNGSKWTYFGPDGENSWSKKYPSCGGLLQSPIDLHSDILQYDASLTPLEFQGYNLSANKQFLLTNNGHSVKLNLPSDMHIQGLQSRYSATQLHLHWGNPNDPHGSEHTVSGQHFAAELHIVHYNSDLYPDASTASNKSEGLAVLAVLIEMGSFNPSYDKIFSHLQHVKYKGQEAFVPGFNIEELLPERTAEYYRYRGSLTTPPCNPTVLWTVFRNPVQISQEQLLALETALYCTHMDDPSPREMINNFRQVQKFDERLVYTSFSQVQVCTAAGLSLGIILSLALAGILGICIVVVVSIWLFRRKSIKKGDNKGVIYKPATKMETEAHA

SMILES | Ki (hCA II; [1]) [nM] | melting point [°C] | S.I. I/XII (hCA XII) | S.I. II/XII (hCA XII) | Ki (hCA XII; [1]) | S.I. I/IX (hCA IX) | S.I. II/IX (hCA IX) | Ki (hCA IX; [1]) [nM] | Ki (hCA I; [1]) [nM] | S.I. (range of the selectivity indexes) (hCA IX; range over I/IX, I/XII, II/IX, II/XII) | Ki (hCA II; [2]) [nM] | Ki (hCA XII; [2]) [nM] | Ki (hCA IX; [2]) [nM] | Ki (hCA I; [2]) [nM]
NS(=O)(=O)c1ccc(CCNc2c(Nc3ccccc3)c(=O)c2=O)cc1 [Compound 5a, 3-Phenylamino-4-[2′-(4″-sulfonamidophenyl)ethylamino]cyclobut-3-ene-1,2-dione] | 720 | > 250 | 2.2 | 7.4 | 96.8 nM | 2.8 | 9.6 | 75.3 | 211 |  |  |  |  | 
COc1ccc(Nc2c(NCCc3ccc(S(N)(=O)=O)cc3)c(=O)c2=O)cc1 [Compound 5b, 3-(p-Methoxyphenyl)amino-4-[2′-(4″-sulfonamidophenyl)ethylamino]cyclobut-3-ene-1,2-dione] | 724 | > 250 | 2.4 | 4.6 | 158 nM | 4.0 | 7.8 | 92.5 | 373 |  |  |  |  | 
NS(=O)(=O)c1ccc(CCNc2c(Nc3ccc(Cl)cc3)c(=O)c2=O)cc1 [Compound 5c, 3-(p-Chlorophenyl)amino-4-[2′-(4″-sulfonamidophenyl)ethylamino]cyclobut-3-ene-1,2-dione] | 819 | > 250 | 9.8 | 9.1 | 90.2 nM | 1.8 | 1.7 | 490 | 881 |  |  |  |  | 
NS(=O)(=O)c1ccc(CCNc2c(Nc3ccc(Br)cc3)c(=O)c2=O)cc1 [Compound 5d, 3-(p-Bromophenyl)amino-4-[2′-(4″-sulfonamidophenyl)ethylamino]cyclobut-3-ene-1,2-dione] | 910 | > 250 | 5.3 | 11 | 85.5 nM | 6.8 | 14 | 67.6 | 457 | 6.8–14 |  |  |  | 
NS(=O)(=O)c1ccc(CCNc2c(Nc3ccc(I)cc3)c(=O)c2=O)cc1 [Compound 5e, 3-(p-Iodophenyl)amino-4-[2′-(4″-sulfonamidophenyl)ethylamino]cyclobut-3-ene-1,2-dione] | 856 | > 250 | 5.2 | 9.5 | 90.3 nM | 5.1 | 9.2 | 92.7 | 471 |  |  |  |  | 
NS(=O)(=O)c1ccc(Nc2c(Nc3ccccc3)c(=O)c2=O)cc1 [Compound 8, 3-Phenylamino-4-[4′-(sulfonamidophenyl)]aminocyclobut-3-ene-1,2-dione] | 65.9 | > 250 | 15 | 10 | 6.57 nM | 5.0 | 3.4 | 19.5 | 98 |  |  |  |  | 
COc1c(Nc2cccc(S(N)(=O)=O)c2)c(=O)c1=O [Compound 10, 3-Methoxy-4-[3′-(sulfonamidophenyl)]aminocyclobut-3-ene-1,2-dione] | 40.9 |  | 14 | 7.1 | 5.78 nM | 3.0 | 1.6 | 26.2 | 79.9 |  |  |  |  | 
NS(=O)(=O)c1cccc(Nc2c(Nc3ccccc3)c(=O)c2=O)c1 [Compound 11] | 95.5 |  | 63 | 10 | 9.5 nM and 9.15 nM | 20 | 3.2 | 29.4 | 580 |  |  |  |  | 
Cc1cc(=O)oc2cc(OCCCNc3c(Nc4ccccc4)c(=O)c3=O)ccc12 [Compound 16a, 3-{[3′-((4″-Methyl-2″-oxo-2″H-chromen-7″-yl)oxy)propyl]amino}-4-phenylaminocyclobut-3-ene-1,2-dione] |  | > 250 |  |  |  |  |  |  |  |  | > 10000 | 42.1 | 79.3 | > 10000
Cc1cc(=O)oc2cc(OCCCCCCCCCNc3c(Nc4ccccc4)c(=O)c3=O)ccc12 [Compound 16c, 3-{[9′-((4″-Methyl-2″-oxo-2″H-chromen-7″-yl)oxy)nonyl]amino}-4-phenylaminocyclobut-3-ene-1,2-dione] |  | 200 to 201 |  |  |  |  |  |  |  |  | > 10000 | 7.23 | 19.2 | > 10000
Cc1cc(=O)oc2cc(OCCCCCCCCCCCCNc3c(Nc4ccccc4)c(=O)c3=O)ccc12 [Compound 16d, 3-{[12′-((4″-Methyl-2″-oxo-2″H-chromen-7″-yl)oxy)dodecyl]amino}-4-phenylaminocyclobut-3-ene-1,2-dione] |  | 178 to 179 |  |  |  |  |  |  |  |  | > 10000 | 7.91 | 18.1 | > 10000
Cc1cc(=O)oc2cc(OCCCCCNc3c(Nc4ccc(Cl)cc4)c(=O)c3=O)ccc12 [Compound 16g, 3-[(4′-Chlorophenyl)amino]-4-{[5″-(4‴-methyl-2‴-oxo-2‴H-chromen-7‴-yl)oxypentyl]amino}cyclobut-3-ene-1,2-dione] |  | 225 to 227 |  |  |  |  |  |  |  |  | > 10000 | 24.4 | 65.3 | > 10000
Cc1cc(=O)oc2cc(OCCCCCNc3c(Nc4ccc(Br)cc4)c(=O)c3=O)ccc12 [Compound 16h, 3-[(4′-Bromophenyl)amino]-4-{[5″-(4‴-methyl-2‴-oxo-2‴H-chromen-7‴-yl)oxypentyl]amino}cyclobut-3-ene-1,2-dione] |  | 248 to 249 |  |  |  |  |  |  |  |  | > 10000 | 13.9 | 46.2 | > 10000
Cc1cc(=O)oc2cc(OCCCCCNc3c(Nc4ccc(I)cc4)c(=O)c3=O)ccc12 [Compound 16i, 3-[(4′-Iodophenyl)amino]-4-{[5″-(4‴-methyl-2‴-oxo-2‴H-chromen-7‴-yl)oxypentyl]amino}cyclobut-3-ene-1,2-dione] |  | > 250 |  |  |  |  |  |  |  |  | > 10000 | 21.5 | 57 | > 10000
Cc1c(C)c2ccc(OCCCCCNc3c(Nc4ccccc4)c(=O)c3=O)cc2oc1=O [Compound 16j, 3-{[5′-((3″,4″-Dimethyl-2″-oxo-2″H-chromen-7″-yl)oxy)pentyl]amino}-4-phenylaminocyclobut-3-ene-1,2-dione] |  | > 250 |  |  |  |  |  |  |  |  | > 10000 | 58.3 | 107 | > 10000
COc1ccc(Nc2c(NCCCCCOc3ccc4c(C)c(C)c(=O)oc4c3)c(=O)c2=O)cc1 [Compound 16k, 3-{[5′-(3″,4″-Dimethyl-2″-oxo-2″H-chromen-7″-yl)oxypentyl]amino}-4-(4‴-methoxyphenylamino)cyclobut-3-ene-1,2-dione] |  | > 250 |  |  |  |  |  |  |  |  | > 10000 | 45.4 | 86.5 | > 10000
Cc1c(C)c2ccc(OCCCCCNc3c(Nc4ccc(Br)cc4)c(=O)c3=O)cc2oc1=O [Compound 16n, 3-[(4′-Bromophenyl)amino]-4-{[5″-(3‴,4‴-dimethyl-2‴-oxo-2‴H-chromen-7″-yl)oxypentyl]amino}cyclobut-3-ene-1,2-dione] |  |  |  |  |  |  |  |  |  |  | > 10000 | 69.6 | 132 | > 10000
